Earlier results in publication PMC6499206, “Quantification of Volatile Metabolites Derived From Garlic (Allium sativum) in Human Urine” (Frontiers in Nutrition, 2019).

System: cardiac hypertrophy
Parameters: method as in PMID 28194108
Settings: rats; by increasing Na+/K+-ATPase; cited from earlier work

## C=CC[S+](C)[O-] (centres unmarked) [AMSO, allyl methyl sulfoxide]
  effect on cardiac hypertrophy: attenuated cardiac hypertrophy

## C=CCSC [AMS, allyl methyl sulfide]
  effect on cardiac hypertrophy: attenuated cardiac hypertrophy
